Measured values published in PubChem BioAssay (NCI).
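Compound exposure: 48 hours, 5 concentrations, 96-well plates. Here, GI50 denotes the concentration required for 50% inhibition of growth. TGI: total growth inhibition.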

Assays:
Test in all cases: inhibition of tumour cell growth, NCI panel, 48 h
HCC-2998 colon = system: HCC-2998 colon
EKVX NSCLC = system: EKVX NSCLC
TK-10 renal = system: TK-10 renal
SNB-75 CNS = system: SNB-75 CNS
HT29 colon = system: HT29 colon
NCI/ADR-RES ovarian = system: NCI/ADR-RES ovarian
MOLT-4 leukemia = system: MOLT-4 leukemia
IGROV1 ovarian = system: IGROV1 ovarian
NCI-H460 lung = system: NCI-H460 lung
MALME-3M melanoma = system: MALME-3M melanoma
SF-268 CNS = system: SF-268 CNS
NCI-H226 lung = system: NCI-H226 lung
OVCAR-4 ovarian = system: OVCAR-4 ovarian
HS 578T breast = system: HS 578T breast
SK-MEL-5 melanoma = system: SK-MEL-5 melanoma
SNB-19 CNS = system: SNB-19 CNS
MDA-MB-435 = system: MDA-MB-435
OVCAR-5 ovarian = system: OVCAR-5 ovarian
NCI-H23 lung = system: NCI-H23 lung
MDA-MB-231 breast = system: MDA-MB-231 breast
KM12 colon = system: KM12 colon
CAKI-1 renal = system: CAKI-1 renal
HOP-62 NSCLC = system: HOP-62 NSCLC
HL-60(TB) leukemia = system: HL-60(TB) leukemia
SK-MEL-28 melanoma = system: SK-MEL-28 melanoma
PC-3 prostate = system: PC-3 prostate
UO-31 renal = system: UO-31 renal
A549 NSCLC = system: A549 NSCLC
U251 CNS = system: U251 CNS
SR leukemia = system: SR leukemia
BT-549 breast = system: BT-549 breast
SF-539 CNS = system: SF-539 CNS
CCRF-CEM leukemia = system: CCRF-CEM leukemia
SN12C renal = system: SN12C renal
SK-OV-3 ovarian = system: SK-OV-3 ovarian
K-562 leukemia = system: K-562 leukemia
SW-620 colon = system: SW-620 colon
T-47D breast = system: T-47D breast
SF-295 CNS = system: SF-295 CNS
OVCAR-3 ovarian = system: OVCAR-3 ovarian
UACC-62 melanoma = system: UACC-62 melanoma
OVCAR-8 ovarian = system: OVCAR-8 ovarian
COLO 205 colon = system: COLO 205 colon
786-0 renal = system: 786-0 renal
A498 renal = system: A498 renal
LOX IMVI melanoma = system: LOX IMVI melanoma
RPMI-8226 leukemia = system: RPMI-8226 leukemia
MCF7 breast = system: MCF7 breast
HCT-116 colon = system: HCT-116 colon
HCT-15 colon = system: HCT-15 colon
ACHN renal = system: ACHN renal
RXF 393 renal = system: RXF 393 renal
DU-145 prostate = system: DU-145 prostate
HOP-92 NSCLC = system: HOP-92 NSCLC
NCI-H522 lung = system: NCI-H522 lung
SK-MEL-2 melanoma = system: SK-MEL-2 melanoma

SMILES: CCOc1ccccc1C(=O)/C=C/c1cc2ccccc2[nH]c1=O
- GI50 (HCC-2998 colon): 126 nM
- TGI (HCC-2998 colon): 654 nM
- GI50 (EKVX NSCLC): 172 nM
- TGI (EKVX NSCLC): 1990 nM
- GI50 (TK-10 renal): 438 nM
- TGI (TK-10 renal): 2930 nM
- GI50 (SNB-75 CNS): 20.9 nM
- TGI (SNB-75 CNS): 76.6 nM
- GI50 (HT29 colon): 23.2 nM
- TGI (HT29 colon): 2060 nM
- GI50 (NCI/ADR-RES ovarian): 23.4 nM
- TGI (NCI/ADR-RES ovarian): 14400 nM
- GI50 (MOLT-4 leukemia): 38.5 nM
- TGI (MOLT-4 leukemia): 4430 nM
- GI50 (IGROV1 ovarian): 56.4 nM
- TGI (IGROV1 ovarian): 1860 nM
- GI50 (NCI-H460 lung): 33.2 nM
- TGI (NCI-H460 lung): 349 nM
- GI50 (MALME-3M melanoma): 23.8 nM
- TGI (MALME-3M melanoma): 1880 nM
- GI50 (SF-268 CNS): 86 nM
- TGI (SF-268 CNS): 1850 nM
- GI50 (NCI-H226 lung): 202 nM
- TGI (NCI-H226 lung): 6490 nM
- GI50 (OVCAR-4 ovarian): 144 nM
- TGI (OVCAR-4 ovarian): 6240 nM
- GI50 (HS 578T breast): 22.2 nM
- TGI (HS 578T breast): 93.3 nM
- GI50 (SK-MEL-5 melanoma): 43.1 nM
- TGI (SK-MEL-5 melanoma): 1310 nM
- GI50 (SNB-19 CNS): 45.9 nM
- TGI (SNB-19 CNS): 1340 nM
- GI50 (MDA-MB-435): < 10 nM
- TGI (MDA-MB-435): 13.9 nM
- GI50 (OVCAR-5 ovarian): 193 nM
- TGI (OVCAR-5 ovarian): 1440 nM
- GI50 (NCI-H23 lung): 72.9 nM
- TGI (NCI-H23 lung): 1770 nM
- GI50 (MDA-MB-231 breast): 77.4 nM
- TGI (MDA-MB-231 breast): 2010 nM
- GI50 (KM12 colon): 35.5 nM
- TGI (KM12 colon): 570 nM
- GI50 (CAKI-1 renal): 25.8 nM
- TGI (CAKI-1 renal): 1490 nM
- GI50 (HOP-62 NSCLC): 67.8 nM
- TGI (HOP-62 NSCLC): 3470 nM
- GI50 (HL-60(TB) leukemia): 13 nM
- TGI (HL-60(TB) leukemia): 59 nM
- GI50 (SK-MEL-28 melanoma): 324 nM
- TGI (SK-MEL-28 melanoma): 2160 nM
- GI50 (PC-3 prostate): 41.3 nM
- TGI (PC-3 prostate): 2760 nM
- GI50 (UO-31 renal): 61.1 nM
- TGI (UO-31 renal): 1590 nM
- GI50 (A549 NSCLC): 74.1 nM
- TGI (A549 NSCLC): 12400 nM
- GI50 (U251 CNS): 39.7 nM
- TGI (U251 CNS): 1330 nM
- GI50 (SR leukemia): < 10 nM
- TGI (SR leukemia): > 100000 nM
- GI50 (BT-549 breast): 72 nM
- TGI (BT-549 breast): 1410 nM
- GI50 (SF-539 CNS): 29.4 nM
- TGI (SF-539 CNS): 129 nM
- GI50 (CCRF-CEM leukemia): 29 nM
- TGI (CCRF-CEM leukemia): > 100000 nM
- GI50 (SN12C renal): 96.1 nM
- TGI (SN12C renal): 1630 nM
- GI50 (SK-OV-3 ovarian): 106 nM
- TGI (SK-OV-3 ovarian): 15200 nM
- GI50 (K-562 leukemia): < 10 nM
- TGI (K-562 leukemia): > 100000 nM
- GI50 (SW-620 colon): 19.4 nM
- TGI (SW-620 colon): 1160 nM
- GI50 (T-47D breast): 271 nM
- TGI (T-47D breast): 19600 nM
- GI50 (SF-295 CNS): 31.1 nM
- TGI (SF-295 CNS): 1280 nM
- GI50 (OVCAR-3 ovarian): 24.5 nM
- TGI (OVCAR-3 ovarian): 108 nM
- GI50 (UACC-62 melanoma): 42.3 nM
- TGI (UACC-62 melanoma): 1930 nM
- GI50 (OVCAR-8 ovarian): 50.7 nM
- TGI (OVCAR-8 ovarian): 2080 nM
- GI50 (COLO 205 colon): 37.1 nM
- TGI (COLO 205 colon): 643 nM
- GI50 (786-0 renal): 39.9 nM
- TGI (786-0 renal): 1330 nM
- GI50 (A498 renal): 14.7 nM
- TGI (A498 renal): 81.3 nM
- GI50 (LOX IMVI melanoma): 44.3 nM
- TGI (LOX IMVI melanoma): 1060 nM
- GI50 (RPMI-8226 leukemia): 28.4 nM
- TGI (RPMI-8226 leukemia): 991 nM
- GI50 (MCF7 breast): 35.6 nM
- TGI (MCF7 breast): 1410 nM
- GI50 (HCT-116 colon): < 22.9 nM
- TGI (HCT-116 colon): 1170 nM
- GI50 (HCT-15 colon): 33.9 nM
- TGI (HCT-15 colon): 1220 nM
- GI50 (ACHN renal): 60.3 nM
- TGI (ACHN renal): 1730 nM
- GI50 (RXF 393 renal): 32.2 nM
- TGI (RXF 393 renal): 340 nM
- GI50 (DU-145 prostate): 38 nM
- TGI (DU-145 prostate): 905 nM
- GI50 (HOP-92 NSCLC): 77.8 nM
- TGI (HOP-92 NSCLC): 1410 nM
- GI50 (NCI-H522 lung): 30.8 nM
- TGI (NCI-H522 lung): 1830 nM
- GI50 (SK-MEL-2 melanoma): 65.7 nM
- TGI (SK-MEL-2 melanoma): 3020 nM
